The source of these data is article PMC6152180, “Design, Synthesis and Evaluation of Hesperetin Derivatives as Potential Multifunctional Anti-Alzheimer Agents” (Molecules : A Journal of Synthetic Chemistry and Natural …, 2017).

For orientation: IC50 means the concentration needed to halve the response being measured. In general, inhibition refers to how much of the control response was suppressed. Usually viability stands for a read-out of living cells in per cent, often relative to untreated cells. In general, Ki refers to the dissociation constant of the complex between target and ligand, obtained from inhibition or displacement.

Like-named read-outs stand apart in the source and are kept apart here.

For one series, the target named is T1, BuChE (Equus caballus, UniProt P81908).
T1 construct: purchased Aladdin B128570-2KU; host or cells: equine serum
Put plainly: biochemical. The conditions noted are these: BuChE from equine serum; means ± SEM of three experiments; read-out: BuChE Inhibition, (IC50).

Series [1] deals with T2, AChE (Electrophorus electricus, UniProt O42275).
T2 construct: purchased Sigma-Aldrich C3389-2KU
In words: biochemical. The conditions noted are these: for IC50: AChE from electric eel, means ± SEM of three experiments, read-out: AchE Inhibition, (IC50); for Selective Index: Selectivity Index = IC50 (BuChE)/IC50 (AChE).
Method: (§1) Acetylcholinesterase (AChE, E.C. 3.1.1.7, obtained from electric eel) was purchased from Sigma-Aldrich (St. Louis, MO, USA, product code: C3389-2KU). Butyrylcholinesterase (BuChE, E.C. 3.1.1.8, obtained from equine serum) was purchased from Aladdin (Shanghai, China, product code: B128570-2KU). […] The compounds were dissolved in a minimum volume of DMSO (1%) and then diluted in 0.1 M KH2PO4/K2HPO4 buffer (pH 8.0) to provide a final concentration range.
(§2) Enzyme solutions were prepared to give 2.0 units/ mL in 2 mL aliquots. The assay medium contained phosphate buffer, pH 8.0 (1 mL), 50 μL of 0.01 M DTNB, 10 μL of enzyme, and 50 μL of 0.01 M substrate (ATC). The substrate was added to the assay medium containing enzyme, buffer, and DTNB with inhibitor after 15 min of incubation time. […] In vitro BuChE assay used the similar method described above [31]. Each concentration was assayed in triplicate.

For a further series, the target named is Aβ (1–42) (Homo sapiens, UniProt P05067). In words: Inhibition of self-mediated Aβ (1–42) aggregation (thioflavin T fluorescence assay). The following applies: for inhibition at 20 µM: read-out: Aβ (1–42) aggregation inhibition rate.
Another series can be described thus: in vitro. The following applies: human.
Series [2] has as its target T2, AChE. Put plainly: Kinetic characterization of AChE inhibition (Lineweaver-Burk plot). Type of series: biochemical. The following applies: Lineweaver–Burk plots.
Method: Three different concentrations (2, 4 and 8 nM) of substrate were mixed in the 1 mL 0.1 M KH2PO4/K2HPO4 buffer (pH 8.0), containing 10 μL AChE, 50 μL of DTNB, and 50 μL substrate. […] A parallel control with no inhibitor in the mixture, allowed adjusting activities to be measured at various times.
The next series deals with PC12 cells. In words: Protective effect against H2O2-induced cell death in PC12 neurons (MTT). The format is cell-based. Here is the method: The neuroprotective activity of compound 4f against oxidative stress-induced cell death in PC12 cells was evaluated. Compound 4f was evaluated at concentrations of 1, 2.5 and 5 µM, and quercetin was used as the reference compound. […] […].
PC12 cells were cultured in DMEM media with 10% fetal calf serum (FCS, Hyclone) containing 100 units/mL penicillin and […] streptomycin under 5% CO2 at 37 °C. To produce oxidative stress, H2O2 was freshly prepared from a 30% stock solution prior to each experiment. PC12 cells were plated in cell culture plates at a density of 10^5 cells per well. In our study, 0.2 mM H2O2 were treated with PC12 cells for 24 h in the injury module, while the compound group cells were pretreated with different concentrations (1, 2.5 and 5 μM) of the compound 4f for 2 h. The control group cells were treated with the same medium without H2O2 or compound 4f. The cell viability of PC12 cells was evaluated using MTT assay. After, PC12 cells were cultured with 5 mg/mL MTT and incubated for 4 h at 37 °C. Then the cells were lysed in dimethyl sulfoxide DMSO ([…]). The absorbance was detected at 570 nm by a microplate reader (Bio-Tek). PC12 cells were cultured without 4f or H2O2 as control group and the results were expressed by percentage of control.

The nature of series [3]: Oxygen radical absorbance capacity-fluorescein (ORAC-FL) assay. The conditions noted are these: Trolox equivalents, Trolox = 1.
Method: Vitamin E analogue Trolox was used as the standard, and the results were expressed as Trolox equivalents.
The anti-oxidation activity was tested by using the oxygen radical absorbance capacity-fluorescein (ORAC-FL) assay [25, 32]. All the ORAC-assays measure antioxidant scavenging activity against peroxyl radical induced by 2,2′-azobis (2-amidinopropane) dihydrochloride (AAPH) at 37 °C.
The reaction was conducted with 75 mM phosphate buffer (pH 7.4) and the final reaction mixture was 200 μL. Fluorescein (120 μL, 300 nM final concentration) and antioxidant (20 μL) were placed in the wells of a black 96-well plate, and the mixture was incubated for 15 min at 37 °C. Then AAPH solution (60 μL, 12 mM final concentration) was added rapidly. […] 6-hydroxy-2,5,7,8-tetramethylchroman-2-carboxylic acid (Trolox) was used as a standard (1–5 μM, final concentration). A blank (FL + AAPH) using phosphate buffer instead of antioxidant and Trolox calibration were carried out in each assay. The samples were measured at different concentrations (1–5 μM), and at least three independent assays were performed for each sample. Fluorescence measurements were normalized based on the curve of the blank (without antioxidant). Antioxidant curves (fluorescence versus time) were normalized to the curve of the blank in the same assay, and then the area under the fluorescence decay curve (AUC) was calculated. The net AUC of a sample was obtained by subtracting the AUC from the blank. ORAC-FL values were expressed as Trolox equivalents by using the standard curve calculated for each sample, where the ORAC-FL value of Trolox was taken as one, indicating the antioxidant potency of the test compounds.

Sequence of Aβ (1–42) (P05067 672-713): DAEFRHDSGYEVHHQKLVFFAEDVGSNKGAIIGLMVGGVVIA
T2 sequence (O42275 24-633): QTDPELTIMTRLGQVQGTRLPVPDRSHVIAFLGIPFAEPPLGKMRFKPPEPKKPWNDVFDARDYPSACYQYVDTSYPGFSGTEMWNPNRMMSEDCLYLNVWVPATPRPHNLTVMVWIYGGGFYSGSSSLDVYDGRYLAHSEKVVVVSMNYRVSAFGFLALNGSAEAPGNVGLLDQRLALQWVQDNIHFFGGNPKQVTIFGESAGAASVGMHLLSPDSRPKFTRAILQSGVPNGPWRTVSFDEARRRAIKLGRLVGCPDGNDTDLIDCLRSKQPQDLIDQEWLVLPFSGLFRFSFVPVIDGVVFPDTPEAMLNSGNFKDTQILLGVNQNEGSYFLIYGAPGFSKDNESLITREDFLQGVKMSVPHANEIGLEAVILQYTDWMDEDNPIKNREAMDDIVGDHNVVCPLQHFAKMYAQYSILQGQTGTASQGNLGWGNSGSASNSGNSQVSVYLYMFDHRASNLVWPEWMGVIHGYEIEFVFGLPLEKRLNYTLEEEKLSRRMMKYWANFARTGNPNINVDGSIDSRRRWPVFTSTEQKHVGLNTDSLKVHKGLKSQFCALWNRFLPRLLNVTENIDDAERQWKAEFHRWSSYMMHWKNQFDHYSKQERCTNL
T1 sequence (P81908 whole entry): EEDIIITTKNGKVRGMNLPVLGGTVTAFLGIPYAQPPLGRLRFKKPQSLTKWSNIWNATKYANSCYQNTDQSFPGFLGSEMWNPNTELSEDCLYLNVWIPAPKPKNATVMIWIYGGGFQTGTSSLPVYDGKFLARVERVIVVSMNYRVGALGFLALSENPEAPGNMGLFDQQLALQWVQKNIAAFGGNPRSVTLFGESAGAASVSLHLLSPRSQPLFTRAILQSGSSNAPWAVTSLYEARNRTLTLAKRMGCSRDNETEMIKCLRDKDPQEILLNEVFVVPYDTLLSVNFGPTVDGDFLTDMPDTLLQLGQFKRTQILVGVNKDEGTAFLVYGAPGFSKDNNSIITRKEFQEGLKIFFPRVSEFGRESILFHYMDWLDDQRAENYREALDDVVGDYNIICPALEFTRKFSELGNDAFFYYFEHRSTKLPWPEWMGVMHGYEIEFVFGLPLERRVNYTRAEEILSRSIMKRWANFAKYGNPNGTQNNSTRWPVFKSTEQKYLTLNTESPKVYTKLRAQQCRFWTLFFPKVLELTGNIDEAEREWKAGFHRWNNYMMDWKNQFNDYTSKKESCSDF
Method for Aβ (1–42): A thioflavin T based fluorometric assay was performed to investigate the self-mediated Aβ (1–42) aggregation [33]. Aβ (1–42) peptide (Sigma-Aldrich) was dissolved in phosphate buffer (0.01 M, pH 7.40) to obtain a 20 μM solution. Compounds were firstly dissolved in DMSO to obtain a 10 mM solution. Inhibitors and the final concentration of Aβ (1–42) were 20 μM. After incubated in 37 °C for 48 h, thioflavin-T (5 μM in 50 mM glycine-NaOH buffer, pH 8.00) was added. […] Each inhibitor was run in triplicate. The fluorescence intensities were recorded, and the percent inhibition on aggregation was calculated by the following expression: (1 − IFi/IFc) × 100% in which IFi and IFc were the fluorescence intensities obtained for absorbance in the presence and absence of inhibitors, respectively, after subtracting the fluorescence of respective blanks.
Method for BuChE: as §1, §2
Method for in vitro: Thus, we used the methylthiazolyl tetrazolium (MTT) method [30] to perform a neurocyte (SH-SY5Y) toxicity test in vitro.
The SH-SY5Y cell line was seeded on 96-well plates at a density of 10^4 cells/well. […] Subsequently, 10 μL of 5 mg/mL MTT solution was added to each well and further incubated for 4 h at 37 °C. The solution was carefully removed, and each well was treated with DMSO (200 μL for each well). The optical density of the wells was then read on the microplate reader at 570 nm. All the tested compounds were performed in triplicate.

With `COc1ccc(C2CC(=O)c3c(O)cc(OCC(=O)NCc4ccccc4)cc3O2)cc1O` (stereo not drawn) [Compound 4a, N-Benzyl-2-[5-hydroxy-2-(3-hydroxy-4-methoxyphenyl)-4-oxochroman-7-yloxy]-acetamide], the IC50 at BuChE is 3400 ± 56 nM. Further, at AChE [1], the 50% inhibitory concentration (IC50) is 25.5 ± 1.32 nM and the “Selective Index” value is listed as 133. The inhibition at 20 µM at Aβ (1–42) came to 73.2%. Further, in “in vitro”, the viability at 48 h, 1 µM worked out at 98.2 ± 8.02%; the viability at 48 h, 10 µM came out at 91.6 ± 5.67%; the viability at 48 h, 50 µM amounted to 81.4 ± 5.23%; the viability at 48 h, 100 µM was determined as 63.2 ± 4.23%.
For the compound `COc1ccc([C@@H]2CC(=O)c3c(O)cc(OCC(=O)NCc4ccc(C(F)(F)F)cc4)cc3O2)cc1O` [Compound 4f, 2-[5-Hydroxy-2-(3-hydroxy-4-methoxyphenyl)-4-oxochroman-7-yloxy]-N-(4-trifluoro-methylbenzyl)acetamide], on AChE [2], the “inhibition type against AChE” value is recorded as “mixed-type inhibition”. Moreover, the inhibition constant (Ki) on AChE [2] (superscript b not defined, read-out: Ki b) turned out to be 4.67 nM. Further, at AChE [2] (superscript c not defined, read-out: Ki c), the Ki came out at 4.27 nM. Besides, the Ki on AChE [2] (superscript d not defined, read-out: Ki d) came to 3.28 nM. The half-maximal inhibitory concentration (IC50) on BuChE is 2860 ± 45 nM. In addition, on AChE [1], the half-inhibitory concentration (IC50) is 9.37 ± 0.87 nM and the “Selective Index” value was 305. For the same compound, at Aβ (1–42), the IC50 was 8470 ± 440 nM and the inhibition at 20 µM worked out at 76.3%. The “protective capability compared with quercetin” value in the series on PC12 cells (5 µM, H2O2 200 µM) is recorded as “slightly better protective capability than quercetin”. The “cytotoxicity toward the PC12 cells” value with PC12 cells (1, 2.5 and 5 µM) is listed as “no cytotoxicity”. In addition, the “protection of PC12 neurons against H2O2-induced cell death” value in the series with PC12 cells (pretreatment at 1, 2.5 and 5 µM, H2O2 200 µM, p-value < 0.01) is recorded as “significantly protected the neurons against cell death”. Further, in the series “in vitro”, the viability at 48 h, 1 µM is 100 ± 4.76%; the viability at 48 h, 10 µM came to 95.8 ± 7.31%; the viability at 48 h, 50 µM came out at 83.3 ± 5.44%; the viability at 48 h, 100 µM was determined as 62.3 ± 5.78%.
For `COc1ccc(CCNC(=O)COc2cc(O)c3c(c2)OC(c2ccc(OC)c(O)c2)CC3=O)cc1` (stereo not drawn) [Compound 4l, 2-[5-Hydroxy-2-(3-hydroxy-4-methoxyphenyl)-4-oxochroman-7-yloxy]-N-[2-(4-methoxy-phenyl)ethyl]acetamide], the ORAC in series [3] is on record as 2.9 μM of Trolox equivalent/μMof tested compound. Moreover, the half-inhibitory concentration (IC50) on BuChE is 2790 ± 53 nM. Besides, on AChE [1], the concentration for half-maximal inhibition (IC50) stood at 19.5 ± 0.77 nM and the “Selective Index” value is 143. For the same compound, in “in vitro”, the viability at 48 h, 1 µM came out at 98.9 ± 4.07%; the viability at 48 h, 10 µM came out at 94.5 ± 5.32%; the viability at 48 h, 50 µM worked out at 78.5 ± 3.21%; the viability at 48 h, 100 µM was determined as 63.2 ± 5.04%.
For `COc1ccc(C2CC(=O)c3c(O)cc(OCC(=O)NCCc4ccc(Cl)cc4)cc3O2)cc1O` (stereo not drawn) [Compound 4m, N-[2-(4-Chlorophenyl)ethyl]-2-[5-hydroxy-2-(3-hydroxy-4-methoxyphenyl)-4-oxo-chroman-7-yloxy]acetamide], in series [3], the ORAC is 2.6 μM of Trolox equivalent/μMof tested compound. On BuChE, the half-maximal inhibitory concentration (IC50) was found to be 3350 ± 66 nM. In addition, on AChE [1], the 50% inhibitory concentration (IC50) came to 15.7 ± 0.85 nM and the “Selective Index” value came to 214. In the series “in vitro”, the viability at 48 h, 1 µM came to 102 ± 6.65%; the viability at 48 h, 10 µM stood at 97.3 ± 5.21%; the viability at 48 h, 50 µM was 81.5 ± 4.01%; the viability at 48 h, 100 µM came out at 64.5 ± 4.32%.
As for `COc1ccc(C2CC(=O)c3c(O)cc(OCC(=O)NCCc4ccc(Br)cc4)cc3O2)cc1O` (stereo not drawn) [Compound 4n, N-[2-(4-Bromophenyl)ethyl]-2-[5-hydroxy-2-(3-hydroxy-4-methoxyphenyl)-4-oxo-chroman-7-yloxy]acetamide], the ORAC in series [3] was 2.4 μM of Trolox equivalent/μMof tested compound. Moreover, the IC50 on BuChE was 1990 ± 51 nM. Besides, on AChE [1], the concentration for half-maximal inhibition (IC50) was determined as 17.2 ± 0.96 nM and the “Selective Index” value is reported as 115. Besides, in “in vitro”, the viability at 48 h, 1 µM was 99.8 ± 3.89%; the viability at 48 h, 10 µM was 96.5 ± 4.24%; the viability at 48 h, 50 µM was determined as 78.8 ± 5.21%; the viability at 48 h, 100 µM was found to be 55.6 ± 5.34%.
With `COc1ccc(C2CC(=O)c3c(O)cc(OCC(=O)NCCc4ccccc4Cl)cc3O2)cc1O` (stereo not drawn) [Compound 4p, N-[2-(2-Chlorophenyl)ethyl]-2-[5-hydroxy-2-(3-hydroxy-4-methoxyphenyl)-4-oxo-chroman-7-yloxy]acetamide], the ORAC in series [3] was 2.7 μM of Trolox equivalent/μMof tested compound. The concentration for half-maximal inhibition (IC50) on BuChE was 3470 ± 67 nM. Moreover, on AChE [1], the IC50 stood at 17.2 ± 0.45 nM and the “Selective Index” value came to 201. In the series “in vitro”, the viability at 48 h, 1 µM is 99.3 ± 4.34%; the viability at 48 h, 10 µM was determined as 94.4 ± 3.9%; the viability at 48 h, 50 µM amounted to 83.1 ± 4.27%; the viability at 48 h, 100 µM was 64.5 ± 4.82%.
On to `COc1ccc(C2CC(=O)c3c(O)cc(OCC(=O)NCCc4ccccc4F)cc3O2)cc1O` (stereo not drawn) [Compound 4q, N-[2-(2-Fluorophenyl)ethyl]-2-[5-hydroxy-2-(3-hydroxy-4-methoxyphenyl)-4-oxochroman-7-yloxy]-acetamide], for which the ORAC in series [3] was 2.5 μM of Trolox equivalent/μMof tested compound. The half-inhibitory concentration (IC50) at BuChE is 2240 ± 77 nM. On AChE [1], the half-inhibitory concentration (IC50) worked out at 20.2 ± 1.88 nM and the “Selective Index” value was determined as 111. In addition, in the series “in vitro”, the viability at 48 h, 1 µM was found to be 99 ± 5.28%; the viability at 48 h, 10 µM worked out at 92 ± 6.41%; the viability at 48 h, 50 µM came to 85.6 ± 3.95%; the viability at 48 h, 100 µM was found to be 66.5 ± 3.81%.
Turning to `COc1ccc(C2CC(=O)c3c(O)cc(OCC(=O)NCCc4cccc(Cl)c4)cc3O2)cc1O` (stereo not drawn) [Compound 4r, N-[2-(3-Chlorophenyl)ethyl]-2-[5-hydroxy-2-(3-hydroxy-4-methoxyphenyl)-4-oxo-chroman-7-yloxy]acetamide], the ORAC in series [3] is reported as 2.8 μM of Trolox equivalent/μMof tested compound. Further, the IC50 on BuChE came to 3030 ± 84 nM. Moreover, at AChE [1], the IC50 was 16.1 ± 0.79 nM and the “Selective Index” value was 188. In “in vitro”, the viability at 48 h, 1 µM was found to be 98.9 ± 5.2%; the viability at 48 h, 10 µM amounted to 95.8 ± 6.29%; the viability at 48 h, 50 µM amounted to 83.8 ± 4.24%; the viability at 48 h, 100 µM came to 62.2 ± 4.18%.
In the case of `COc1ccc(C2CC(=O)c3c(O)cc(OCC(=O)NCc4ccncc4)cc3O2)cc1O` (stereo not drawn) [Compound 4s, 2-[5-Hydroxy-2-(3-hydroxy-4-methoxyphenyl)-4-oxochroman-7-yloxy]-N-pyridin-4-ylmethylacetamide], the ORAC in series [3] is 2.4 μM of Trolox equivalent/μMof tested compound. The IC50 on BuChE came to 1850 ± 55 nM. In addition, at AChE [1], the IC50 amounted to 27.3 ± 0.99 nM and the “Selective Index” value is 68. In addition, the inhibition at 20 µM at Aβ (1–42) amounted to 72%. In addition, in the series “in vitro”, the viability at 48 h, 1 µM is 101 ± 6.17%; the viability at 48 h, 10 µM was 97.5 ± 5.36%; the viability at 48 h, 50 µM is 78.7 ± 3.46%; the viability at 48 h, 100 µM was 59.6 ± 3.61%.
Consider `COc1ccc(C2CC(=O)c3c(O)cc(OCC(=O)NCc4ccco4)cc3O2)cc1O` (stereo not drawn) [Compound 4t, N-Furan-2-ylmethyl-2-[5-hydroxy-2-(3-hydroxy-4-methoxyphenyl)-4-oxochroman-7-yloxy]acetamide], for which the ORAC in series [3] is 2.6 μM of Trolox equivalent/μMof tested compound. In addition, the IC50 at BuChE came out at 2350 ± 104 nM. Moreover, at AChE [1], the half-maximal inhibitory concentration (IC50) amounted to 30.6 ± 4.5 nM and the “Selective Index” value was 77. For the same compound, at Aβ (1–42), the inhibition at 20 µM came out at 70.8%. In the series “in vitro”, the viability at 48 h, 1 µM amounted to 99.9 ± 4.52%; the viability at 48 h, 10 µM was determined as 97.5 ± 3.65%; the viability at 48 h, 50 µM was 81.8 ± 4.06%; the viability at 48 h, 100 µM was determined as 61.2 ± 5.12%.
